The values below come from US12125561B2, “Determination of JAK-STAT3 pathway activity using unique combination of target genes” (InnoSIGN B.V., priority 2017, dated 2024).

What all share (assay type): cell-based
For assay [1], the system named is JAK-STAT3 cellular signaling pathway in EGFR mutant cells of lung cancer. As to the kind of experiment: JAK-STAT3 pathway activity, lung Bayesian network model, calibration on data set GSE57156. The settings on record: calibration samples, group 1; DMSO-treated cells considered active; FIG. 9.
Description: Herein, available expression data sets of EGFR mutant cells of lung cancer from data set GSE57156 were used.
(§1) Herein, an exemplary Bayesian network model as shown in FIG. 2 was used to model the transcriptional program of the JAK-STAT3 cellular signaling pathway in a simple manner. The model consists of three types of nodes: (a) a transcription factor (TF) element (with states “absent” and “present”) in a first layer 1; (b) target genes TG1, TG2, TGn (with states “down” and “up”) in a second layer 2, and; (c) measurement nodes linked to the expression levels of the target genes in a third layer 3. These can be microarray probesets PS1,1, PS1,2, PS1,3, PS2,1, PSn,1, PSn,m (with states “low” and “high”), as preferably used herein, but could also be other gene expression measurements such as RNAseq or RT-qPCR.
A suitable implementation of the mathematical model, herein, the exemplary Bayesian network model, is based on microarray data. The model describes (i) how the expression levels of the target genes depend on the activation of the TF element, and (ii) how probeset intensities, in turn, depend on the expression levels of the respective target genes. […]
In assay [2] the test system is JAK-STAT3 cellular signaling pathway in PC9 NSCLC cells. As to the kind of experiment: JAK-STAT3 pathway activity prediction, lung model, data set GSE67051, PC9. The note with it: PC 9, treated for 8 days, group 1 vs group 2; FIG. 13.
Description: as §1
(§2) A suitable implementation of the mathematical model, herein, the exemplary Bayesian network model, is based on microarray data. The model describes (i) how the expression levels of the target genes depend on the activation of the TF element, and (ii) how probeset intensities, in turn, depend on the expression levels of the respective target genes. For the latter, probeset intensities may be taken from fRMA pre-processed Affymetrix HG-U133Plus2.0 microarrays, which are widely available from the Gene Expression Omnibus (GEO, www.ncbi.nlm.nih.gov/geo) and ArrayExpress (www.ebi.ac.uk/arrayexpress). […]
The test system of assay [3] is JAK-STAT3 cellular signaling pathway in epithelial cells from HaCaT cell lines. As to the kind of experiment: JAK-STAT3 pathway activity prediction, lung model, data set GSE32975. The note with it: EGF vs unstimulated control; gefitinib samples in group 6 and group 7; FIG. 11. The text has this:
Epithelial cells from HaCaT cell lines were stimulated with epidermal growth factor (EGF) in data set GSE32975. Each group represents one replica from the cell line.

Assay [4] has as its system JAK-STAT3 cellular signaling pathway in Ishikawa H cells (derived endometrial carcinomas). Put plainly: JAK-STAT3 pathway activity prediction, lung model, data set GSE20854. The note with it: FIG. 12. On the procedure: Ishikawa H cells (derived endometrial carcinomas) were dosed with either EGF (epidermal growth factor) or Iressa (gefitinib) for 12 or 24 hours in data set GSE20854.

Assay [5] relates to JAK-STAT3 cellular signaling pathway in tamoxifen initiated, transformation inducible, breast cancer model system. Put plainly: JAK-STAT3 pathway activity prediction, lung model, data set GSE64536. The note with it: FIG. 15.
Description: as §1, §2
Assay [6] has as its system JAK-STAT3 cellular signaling pathway in Sez-4 cell line (cutaneous T-cell lymphoma). As to the kind of experiment: JAK-STAT3 pathway activity prediction, blood model, data set GSE8685. The note with it: cells starved of IL-2 for 16 hours, then IL-2 (200 U) resp. IL-15 (20 ng/mL); FIG. 16. On the procedure: A Sez-4 cell line which was derived from a cutaneous T-cell lymphoma (data set GSE8685). […] IL-15 (20 ng/mL).

[7] abbreviates: dosed for 12 hours, compared to undosed samples harvested at 12 hours.
The mark [8] stands for this setting: dosed for 24 hours, compared to undosed samples harvested at 24 hours.

Turning to `C#Cc1cccc(Nc2ncnc3cc(OCCOC)c(OCCOC)cc23)c1` [erlotinib], in assay [1], the “JAK-STAT3 pathway status of treated cells (odds that the TF element is present)” value is “JAK-STAT3 inactive”. The “predicted STAT3 activity of DMSO-treated cells compared to erlotinib-treated cells” value in assay [2] is “higher”.
Consider `COc1cc2ncnc(Nc3ccc(F)c(Cl)c3)c2cc1OCCCN1CCOCC1` [gefitinib], for which the “predicted STAT3 pathway activity (odds that the TF element is present)” value in assay [3], in assay [4] (setting [7]) and in assay [4] (setting [8]) was “decreased STAT3 pathway activity” throughout.
Turning to `CC/C(=C(\c1ccccc1)c1ccc(OCCN(C)C)cc1)c1ccccc1` [tamoxifen], the “predicted JAK-STAT3 activity of EtOH-treated cells compared to cells initiated with tamoxifen” value was “higher” in assay [5] (4 hours, group 1 vs group 3) and “higher” in assay [5] (24 hours, group 2 vs group 4).
Regarding “IL-15: cytokine added to IL-2 starved Sez-4 cells”, in assay [6], the “predicted JAK-STAT3 pathway status compared to the control group” value is “active”.
As to “epidermal growth factor (NSDSECPLSHDGYCLHDGVCMYIEALDKYACNCVVGYIGERCQYRDLKWWELR; Epidermal growth factor; UniProt P01133 971-1023, looked up) [EGF, epidermal growth factor (EGF)]”, the “predicted STAT3 pathway activity (odds that the TF element is present)” value in assay [3], in assay [4] (setting [7]) and in assay [4] (setting [8]) was “higher STAT3 activity” in each case.
